In US11865176B2, “Compositions and methods of modulating anti-tumor immunity” (Dana-Farber Cancer Institute, Inc., priority 2016, dated 2024):
Where “and” joins values, the source holds several entries; their conditions need not be identical. Identical values can stand only once. Like-named read-outs stand apart in the source and are kept apart here.

Tested on: PD-1-overexpressing Jurkat cells
Assay: Small molecule screen: IL2 secretion (AlphaLISA) from stimulated PD-1-overexpressing Jurkat cells
Format: cell-based, human
Method in brief: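 Cells (100,000/well) with compound at 3.3 μM final, stimulated by α-CD3/α-CD28/α-PD-1 Dynabeads at an 8:1 bead:cell ratio. IL2 in supernatants measured by AlphaLISA. Hits scored ≥3 SD from the mean of DMSO-treated, α-PD-1-bead-stimulated controls.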

[1] = IL2 level, replicate 1, 3.3 μM compound, α-CD3/α-CD28/α-PD-1 beads
[2] = IL2 level, replicate 2, 3.3 μM compound, α-CD3/α-CD28/α-PD-1 beads
[3] = average of replicate Z scores, 3.3 μM compound

| Compound | Zscore_1 [1] | Zscore_2 [2] | Zscore_AVG [3] | Zscore_1 | Zscore_2 | Zscore_AVG |
| --- | --- | --- | --- | --- | --- | --- |
| CCCOc1ccc(/C=C2/SC(=O)NC2=O)cc1 [PIM1/2 Kinase Inhibitor VI] | −0.7695 | −1.561 | −1.165 |  |  |  |
| O=C1NC(=O)C(c2cn(CCCn3ccnc3)c3ccccc23)=C1Nc1ccccc1 [PKCb Inhibitor] | −3.512 | −5.04 | −4.276 |  |  |  |
| O=C1NC(=O)c2cc(Nc3ccc(F)cc3)c(Nc3ccc(F)cc3)cc21 [PKCbII/EGFR Inhibitor] | −0.838 | 0.616 | −0.111 |  |  |  |
| O=C1Nc2ccc(Cl)cc2/C1=C/c1cc(Cl)c(O)c(Cl)c1 [PKR Inhibitor, Negative Control] | −1.427 | −0.4334 | −0.9301 |  |  |  |
| O=C1Nc2ccc3ncsc3c2/C1=C/c1cnc[nH]1 [PKR Inhibitor] | −7.658 | −8.086 | −7.872 |  |  |  |
| CC(C)(C)n1nc(Cc2cccc3ccccc23)c2c(N)ncnc21 [PP1 Analog II, 1NM-PP1] | −0.9751 | 0.08497 | −0.4451 |  |  |  |
| Nc1ncnc2c1cnn2-c1ccccc1 [PP3] | 0.2416 | 0.9081 | 0.5749 |  |  |  |
| N#Cc1cc([N+](=O)[O-])c2sc(C(N)=O)[n+]([O-])c2c1 [Polo-like Kinase Inhibitor II, BTO-1] | −1.795 | −0.518 | −1.156 |  |  |  |
| CC(C)[C@H](CO)Nc1nc(Nc2cccc(Cl)c2)c2ncn(C(C)C)c2n1 [Purvalanol A] | −3.126 | 0.37 | −1.378 |  |  |  |
| O=c1c(O)c(-c2ccc(O)c(O)c2)oc2cc(O)c(O)c(O)c12 [Quercetagetin] | −1.427 | −1.66 | −1.543 |  |  |  |
| C[C@@H](N)[C@H]1CC[C@H](C(=O)Nc2ccncc2)CC1 [ROCK Inhibitor, Y-27632] | −3.269 | −4.375 | −3.822 |  |  |  |
| CC(=O)O[C@@H]1[C@@H](OC(C)=O)[C@@H](O)[C@H](Oc2c(-c3ccc(O)cc3)oc3cc(O)cc(O)c3c2=O)O[C@H]1C [RSK Inhibitor, SL0101] | 1.689 | −0.3488 | 0.67 |  |  |  |
| CO[C@H]1C[C@@H]2CC[C@@H](C)[C@@](O)(O2)C(=O)C(=O)N2CCCC[C@H]2C(=O)O[C@H]([C@H](C)C[C@@H]2CC[C@@H](O)[C@H](OC)C2)CC(=O)[C@H](C)/C=C(\C)[C@@H](O)[C@@H](OC)C(=O)[C@H](C)C[C@H](C)/C=C/C=C/C=C/1C [Rapamycin] | −1.883 | −3.367 | −2.625 |  |  |  |
| COc1ccc2nc3n[nH]c(C)c3c(NCCOCCO)c2c1 [Ras/Rac Transformation Blocker, SCH 51344] | −2.363 | −3.128 | −2.746 |  |  |  |
| c1nc2nc(Nc3ccc(N4CCOCC4)cc3)nc(NC3CCCCC3)c2[nH]1 [Reversine] | −3.512 | −5.332 | −4.422 |  |  |  |
| c1ccc2c(-c3ccncc3)c[nH]c2c1 [Rho Kinase Inhibitor III, Rockout] | −0.1806 | −2.59 | −1.385 |  |  |  |
| O=C(Nc1ccncc1)Nc1c(Cl)cc(Cl)cc1Cl [Rho Kinase Inhibitor II] | −1.746 | −1.88 | −1.813 |  |  |  |
| Cc1cncc2cccc(S(=O)(=O)N3CCCN(C(=O)CN)C[C@@H]3C)c12 [Rho Kinase Inhibitor IV] | −5.704 | −5.042 | −5.373 |  |  |  |
| O=C(Nc1ccc(-c2cn[nH]c2)cc1)C1COc2ccccc2O1 (stereo not drawn) [Rho Kinase Inhibitor V] | −0.6152 | −2.172 | −1.394 |  |  |  |
| Cn1cc(C2=C(c3cn(CCCSC(=N)N)c4ccccc34)C(=O)NC2=O)c2ccccc21 [Ro-31-8220] | −5.987 | −6.268 | −6.128 |  |  |  |
| CC[C@H](CO)Nc1nc(NCc2ccccc2)c2ncn(C(C)C)c2n1 [Roscovitine] | −1.54 | −2.209 | −1.875 |  |  |  |
| Oc1ccc(-c2nc(-c3ccc(F)cc3)c(-c3ccncc3)[nH]2)cc1 [SB 202190] | −1.512 | −3.097 | −2.304 |  |  |  |
| CCc1nc(-c2ccc(OC)cc2)[nH]c1-c1ccncc1 [SB 202474, Neg Con for p38 MAPK Inhibition Studies] | −2.475 | −0.6025 | −1.539 |  |  |  |
| CS(=O)(=O)c1ccc(-c2nc(-c3ccc(F)cc3)c(-c3ccncc3)[nH]2)cc1 [SB 203580, Sulfone] |  |  |  | 2.85 | −0.6448 | 1.103 |
| C[S+]([O-])c1ccc(-c2nc(-c3ccc(F)cc3)c(-c3ccncc3)[nH]2)cc1 (stereo not drawn) [SB 203580] | −0.8209 | −0.02124 | −0.4211 |  |  |  |

| Compound | Zscore_1 [1] | Zscore_2 [2] | Zscore_AVG [3] | Zscore_1 | Zscore_2 | Zscore_AVG |
| --- | --- | --- | --- | --- | --- | --- |
| O=C1NC(=O)c2c1c1c3ccccc3n3c1c1c2c2ccccc2n1C1CCC3O1 [SB 218078] | −0.8723 | −1.561 | −1.217 |  |  |  |
| Nc1nccc(-c2c(-c3ccc(F)cc3)ncn2C2CCNCC2)n1 [SB 220025] | 14.69 | 27.59 | 21.14 |  |  |  |
| COc1nccc(-c2c(-c3ccc(F)cc3)ncn2C2CCC(O)CC2)n1 (stereo not drawn) [SB 239063] | −0.08397 | 1.041 | 0.4785 |  |  |  |
| Cc1nc(-c2ccccc2)c(-c2ccncc2)o1 [SC-68376] | −1.404 | −0.2868 | −0.8452 |  |  |  |
| Fc1ccc(-c2nc3n(c2-c2ccncc2)CCS3)cc1 [SKF-86002] | −0.4953 | −2.331 | −1.413 |  |  |  |
| O=C(O)c1ccc2c3c1cccc3c(=O)n1c3ccccc3nc21 [STO-609] | −1.71 | −1.025 | −1.368 |  |  |  |
| CN(C)S(=O)(=O)c1ccc2c(c1)/C(=C/c1cc3c([nH]1)CCCC3)C(=O)N2 [SU6656] | 1.733 | 1.333 | 1.533 |  |  |  |
| COc1ccc2c(c1)/C(=C/c1cnc[nH]1)C(=O)N2 [SU9516] | 8.231 | 12.12 | 10.18 |  |  |  |
| CCN(CC)CCNC(=O)c1c(C)[nH]c(/C=C2\C(=O)Nc3ccc(Cl)cc32)c1C [SU11652] | 8.033 | −6.691 | 0.671 |  |  |  |
| Oc1ccc(Nc2nc(-c3ccc(Cl)cc3)cs2)cc1 [Sphingosine Kinase Inhibitor] | −3.806 | −4.154 | −3.98 |  |  |  |
| COc1cc2ncnc(Nc3ccc(Oc4ccccc4)cc3)c2cc1OC [Src Kinase Inhibitor I] | 4.691 | 1.808 | 3.249 |  |  |  |
| CN[C@@H]1C[C@H]2O[C@@](C)([C@@H]1OC)n1c3ccccc3c3c4c(c5c6ccccc6n2c5c31)C(=O)NC4 [Staurosporine, Streptomyces sp.] | −6.893 and −7.431 | −9.439 and −9.651 | −8.166 and −8.541 |  |  |  |
| CC(C)(C)c1ccc(S(=O)(=O)Nc2ccc(-n3ccnc3)cc2)cc1 [Stem-Cell Factor/c-Kit Inhibitor, ISCK03] | −0.9751 | −0.07435 | −0.5247 |  |  |  |
| O=[N+]([O-])/C=C/c1ccc2c(c1)OCO2 [Syk Inhibitor III] | −0.8894 | 0.1912 | −0.3491 |  |  |  |
| NCCNc1ncc(C(N)=O)c(Nc2cccc(C(F)(F)F)c2)n1 [Syk Inhibitor II] | −0.7866 | −0.6851 | −0.7358 |  |  |  |
| Cc1cccc(-c2[nH]c(C(C)(C)C)nc2-c2ccc3c(c2)OCO3)n1 [TGF-b RI Inhibitor III] | −0.4096 | −0.6585 | −0.5341 |  |  |  |
| c1ccc(-c2[nH]ncc2-c2ccnc3ccccc23)nc1 [TGF-b RI Kinase Inhibitor] | −0.7181 | −1.933 | −1.326 |  |  |  |
| Cc1cc(C=C2C(=O)C=CC2=O)cc(C)c1O [TX-1918] | −0.9736 | −2.336 | −1.655 |  |  |  |
| N#Cc1cnc2cnc(NCc3cccnc3)cc2c1Nc1ccc(F)c(Cl)c1 [Tpl2 Kinase Inhibitor] | −2.9 | −5.972 | −4.436 |  |  |  |
| CN[C@@H]1C[C@H]2O[C@@](C)([C@@H]1OC)n1c3ccccc3c3c4c(c5c6ccccc6n2c5c31)C(=O)N[C@@H]4O [UCN-01] | −7.46 | −8.298 | −7.879 |  |  |  |
| Cc1cc(C)c(/C=C2\C(=O)Nc3ccccc32)[nH]1 [VEGF Receptor 2 Kinase Inhibitor III] | −0.2089 | −2.04 | −1.124 |  |  |  |
| O=C1Nc2ccc(Br)cc2/C1=C/c1cc2c([nH]1)CCCC2 [VEGF Receptor 2 Kinase Inhibitor II] | 0.1217 | −0.1806 | −0.02944 |  |  |  |
| COc1ccc(-c2cnc3c(-c4ccsc4)cnn3c2)cc1 [VEGF Receptor 2 Kinase Inhibitor IV] | −1.795 | 1.512 | −0.1417 |  |  |  |
| CCOC(=O)c1c(C)[nH]c(/C=C2\C(=O)Nc3ccccc32)c1C [VEGF Receptor 2 Kinase Inhibitor I] | −0.8038 | −1.721 | −1.262 |  |  |  |
